Experimental data reported in the supplement of paper PMC10307832.

Experiments:
Experiment in all cases: relative viability (nuclei count vs DMSO), 5 days (fraction); higher = more cells survive
[1] = system: CAL-12T
Summary of the method: (§1)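 Each reported value is a median over duplicate plates. It expresses relative viability: treated-well nuclei count divided by vehicle-well nuclei count. Lung cancer cell lines in 1536-well plates were dosed by pin tool a day after seeding, alone with one drug or with a fixed anchor-drug dose plus five library-drug doses (not always all listed) in √10 steps, and nuclei were counted after 5 days.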

[2] = system: NCI-H1975
Summary of the method: as §1

[3] = system: NCI-H520
Summary of the method: as §1

[4] = system: NCI-H596
Summary of the method: as §1

[5] = system: LOU-NH91
Summary of the method: as §1

[6] = system: LCLC-103H
Summary of the method: as §1

[7] = system: ABC-1
Summary of the method: as §1

[8] = system: NCI-H2085
Summary of the method: as §1

[9] = system: NCI-H727
Summary of the method: as §1

[10] = system: NCI-H647
Summary of the method: as §1

[11] = system: NCI-H838
Summary of the method: as §1

[12] = system: NCI-H1734
Summary of the method: as §1

[13] = system: NCI-H2126
Summary of the method: as §1

[14] = system: BEN
Summary of the method: as §1

[15] = system: RERF-LC-KJ
Summary of the method: as §1

[16] = system: NCI-H460
Summary of the method: as §1

[17] = system: NCI-H1944
Summary of the method: as §1

[18] = system: NCI-H1666
Summary of the method: as §1

[19] = system: NCI-H661
Summary of the method: as §1

[20] = system: NCI-H1651
Summary of the method: as §1

[21] = system: A-427
Summary of the method: as §1

[22] = system: HARA
Summary of the method: as §1

Q: How did the relative viability ([1]; first compound 0.02 µM) turn out when `CN1CCN(CCOc2cc(OC3CCOCC3)c3c(Nc4c(Cl)ccc5c4OCO5)ncnc3c2)CC1` [Saracatinib] + C[C@@H](Oc1cc(-c2cnn(C3CCNCC3)c2)cnc1N)c1c(Cl)ccc(F)c1Cl [Crizotinib] (partner 1 µM) was run?
A: 0.649

Q: What about the relative viability ([1]; first compound 0.2 µM) of the same molecule?
A: 0.522

Q: What about the relative viability ([1]; first compound 0.6325 µM) of the same molecule?
A: 0.746

Q: What about the relative viability ([1]; first compound 2 µM) of the same molecule?
A: 0.367

Q: And the relative viability ([2]; first compound 0.02 µM)?
A: 1.02

Q: What about the relative viability ([2]; first compound 0.6325 µM) of the same molecule?
A: 0.823

Q: What about the relative viability ([2]; first compound 2 µM) of the same molecule?
A: 0.515

Q: What about the relative viability ([3]; first compound 0.02 µM) of the same molecule?
A: 0.74

Q: What about the relative viability ([3]; first compound 0.2 µM) of the same molecule?
A: 0.732

Q: And the relative viability ([3]; first compound 0.6325 µM)?
A: 0.531

Q: And the relative viability ([3]; first compound 2 µM)?
A: 0.37

Q: And the relative viability ([4]; first compound 0.02 µM)?
A: 0.727

Q: What about the relative viability ([4]; first compound 0.2 µM) of the same molecule?
A: 0.775

Q: And the relative viability ([4]; first compound 0.6325 µM)?
A: 0.981

Q: And the relative viability ([4]; first compound 2 µM)?
A: 0.626

Q: What about the relative viability ([5]; first compound 0.02 µM) of the same molecule?
A: 0.692

Q: And the relative viability ([5]; first compound 0.2 µM)?
A: 0.57

Q: What about the relative viability ([5]; first compound 0.6325 µM) of the same molecule?
A: 0.542

Q: And the relative viability ([5]; first compound 2 µM)?
A: 0.458

Q: What about the relative viability ([6]; first compound 0.02 µM) of the same molecule?
A: 1.11

Q: And the relative viability ([6]; first compound 0.2 µM)?
A: 0.817

Q: What about the relative viability ([6]; first compound 0.6325 µM) of the same molecule?
A: 1.13

Q: And the relative viability ([6]; first compound 2 µM)?
A: 0.976

Q: What about the relative viability ([7]; first compound 0.02 µM) of the same molecule?
A: 1.1

Q: What about the relative viability ([7]; first compound 0.2 µM) of the same molecule?
A: 1.06

Q: And the relative viability ([7]; first compound 0.6325 µM)?
A: 0.918

Q: What about the relative viability ([7]; first compound 2 µM) of the same molecule?
A: 0.705

Q: What about the relative viability ([8]; first compound 0.02 µM) of the same molecule?
A: 0.763

Q: And the relative viability ([8]; first compound 0.2 µM)?
A: 0.761

Q: And the relative viability ([8]; first compound 0.6325 µM)?
A: 0.766

Q: What about the relative viability ([8]; first compound 2 µM) of the same molecule?
A: 0.755

Q: What about the relative viability ([9]; first compound 0.02 µM) of the same molecule?
A: 0.904

Q: What about the relative viability ([9]; first compound 0.2 µM) of the same molecule?
A: 0.452

Q: And the relative viability ([9]; first compound 0.6325 µM)?
A: 0.617

Q: And the relative viability ([9]; first compound 2 µM)?
A: 0.378

Q: And the relative viability ([10]; first compound 0.02 µM)?
A: 1.11

Q: And the relative viability ([10]; first compound 0.2 µM)?
A: 0.707

Q: And the relative viability ([10]; first compound 0.6325 µM)?
A: 0.704

Q: What about the relative viability ([10]; first compound 2 µM) of the same molecule?
A: 0.411

Q: And the relative viability ([11]; first compound 0.02 µM)?
A: 0.818

Q: What about the relative viability ([11]; first compound 0.2 µM) of the same molecule?
A: 0.779

Q: And the relative viability ([11]; first compound 0.6325 µM)?
A: 0.608

Q: What about the relative viability ([11]; first compound 2 µM) of the same molecule?
A: 0.582

Q: What about the relative viability ([12]; first compound 0.02 µM) of the same molecule?
A: 0.751

Q: And the relative viability ([12]; first compound 0.6325 µM)?
A: 0.656

Q: And the relative viability ([12]; first compound 2 µM)?
A: 0.507

Q: What about the relative viability ([13]; first compound 0.02 µM) of the same molecule?
A: 0.991

Q: And the relative viability ([13]; first compound 0.2 µM)?
A: 0.84

Q: And the relative viability ([13]; first compound 0.6325 µM)?
A: 1.02

Q: And the relative viability ([13]; first compound 2 µM)?
A: 0.894

Q: What about the relative viability ([14]; first compound 0.02 µM) of the same molecule?
A: 0.77

Q: What about the relative viability ([14]; first compound 0.2 µM) of the same molecule?
A: 0.738

Q: What about the relative viability ([14]; first compound 0.6325 µM) of the same molecule?
A: 0.911

Q: What about the relative viability ([14]; first compound 2 µM) of the same molecule?
A: 0.569

Q: And the relative viability ([15]; first compound 0.02 µM)?
A: 0.81

Q: What about the relative viability ([15]; first compound 0.2 µM) of the same molecule?
A: 0.833

Q: And the relative viability ([15]; first compound 0.6325 µM)?
A: 0.945

Q: What about the relative viability ([15]; first compound 2 µM) of the same molecule?
A: 0.778

Q: And the relative viability ([16]; first compound 0.02 µM)?
A: 0.97

Q: What about the relative viability ([16]; first compound 0.2 µM) of the same molecule?
A: 0.501

Q: And the relative viability ([16]; first compound 0.6325 µM)?
A: 0.696

Q: And the relative viability ([16]; first compound 2 µM)?
A: 0.566

Q: What about the relative viability ([17]; first compound 0.02 µM) of the same molecule?
A: 1.11

Q: What about the relative viability ([17]; first compound 0.6325 µM) of the same molecule?
A: 1.09

Q: What about the relative viability ([17]; first compound 2 µM) of the same molecule?
A: 0.67

Q: And the relative viability ([18]; first compound 0.02 µM)?
A: 1.04

Q: And the relative viability ([18]; first compound 0.2 µM)?
A: 0.965

Q: And the relative viability ([18]; first compound 0.6325 µM)?
A: 1.18

Q: And the relative viability ([18]; first compound 2 µM)?
A: 0.926

Q: And the relative viability ([19]; first compound 0.02 µM)?
A: 1.08

Q: What about the relative viability ([19]; first compound 0.6325 µM) of the same molecule?
A: 1.03

Q: What about the relative viability ([19]; first compound 2 µM) of the same molecule?
A: 0.864

Q: What about the relative viability ([20]; first compound 0.02 µM) of the same molecule?
A: 0.866

Q: And the relative viability ([20]; first compound 0.2 µM)?
A: 0.802

Q: And the relative viability ([20]; first compound 0.6325 µM)?
A: 0.923

Q: And the relative viability ([20]; first compound 2 µM)?
A: 0.751

Q: And the relative viability ([21]; first compound 0.02 µM)?
A: 1.04

Q: And the relative viability ([21]; first compound 0.2 µM)?
A: 0.604

Q: What about the relative viability ([21]; first compound 0.6325 µM) of the same molecule?
A: 0.837

Q: And the relative viability ([21]; first compound 2 µM)?
A: 0.926

Q: And the relative viability ([22]; first compound 0.02 µM)?
A: 1.02

Q: And the relative viability ([22]; first compound 0.6325 µM)?
A: 0.829

Q: And the relative viability ([22]; first compound 2 µM)?
A: 0.64
